In patent US4024224A, “14-Aminodaunomycins, their preparation and use” (priority 1974, dated 1977):
Converted amounts (≈) assume the structure as drawn. Where two headings read alike, the source gives them in different places.

Tests used:
Solid Sarcoma 180 = test: Antitumor activity and toxicity on solid Sarcoma 180 in CD 1 mice; format: in vivo; details: for Tumor Volume T/C %: 11th day; for Toxic Deaths: deaths/total
Experimental: (§1) The toxicity of the test compounds was evaluated by macroscopic autoptic examination mainly in terms of reduction in spleen size. The comparison of the effectiveness of the test compounds is based on the maximum increase in median survival time, as compared to untreated controls, over the dose range used. The number of Long Term Survivors (LTS) refers to tumor-free mice at the end of the experiment (60 days). Solid Sarcoma 180 was implanted subcutaneously by trocar in the flank of CD 1 mice according to standard methods. The mice were treated i.v. for 5 consecutive days, starting 1 day after the tumor implant. On the 11th day the tumor volume was measured by means of a caliper and evaluated according to the formula (a^2 × b)/2, a and b being the minimum and the maximum diameters respectively.

[1] = Antitumor activity and toxicity on ascites Sarcoma 180 in CD 1 mice; format: in vivo; details: mouse, in vivo, ip, read-out: % Toxic Deaths
Experimental: (§2) The antitumor activity of the compounds of the invention was tested on ascites Sarcoma 180.
(§3) Three month old CD 1 mice were used. Sarcoma 180 ascites cells were inoculated intraperitoneally (10^6 cells/mouse). For use in these tests, the compounds were dissolved in distilled water or in 5% ethyl alcohol in distilled water, then diluted with Ringers solution and administered i.p. 1 day after the tumor implant (10 ml./kg. of body weight).
as §1

ascites Sarcoma 180 = test: as above; format: in vivo; details: for % LTS: 60 days; for LTS (Long Term Survivors after 60 days): survivors/total; for Toxic Deaths: deaths/total
Experimental: as §2, §3, §1

[2] = test system: Moloney Sarcoma Virus (MSV); test: Inhibition of MSV-M foci formation in mouse embryo fibroblasts; format: cell-based; details: Fibroblast, 120 h; for IC50: read-out: MSV-M foci ID 50 (Inhibiting Dose 50%); for activity at 0.1 µg/mL: dose 0.1 μg/ml; for activity at 0.4 µg/mL: dose 0.4 μg/ml
Experimental: (§4) Mouse embryo fibroblasts (MEF) were plated on 35 mm. Falcon plastic dishes and infected 24 hours later with Moloney Sarcoma Virus (MSV) in the presence of DEAE-dextran (25 μg./ml.). The samples were then treated for 3 days with different concentrations of the compounds of the invention. The number of foci of transformed cells was microscopically determined 5 days after the infection. Uninfected MEF were similarly treated and at the end of the experiment, the cells were counted in an haemocytometer. In all the experiments, the cells were incubated in a 5% CO2 incubator at 37° C.
(§5) For use in these tests the compounds were dissolved in distilled water or in 5% ethyl alcohol in distilled water and then diluted in culture medium.
The results of these tests are reported in Table I in terms of ID50 values (Inhibiting Dose 50%), calculated on dose-effects lines.

Mouse Embryo Fibroblasts = test: Proliferation of uninfected mouse embryo fibroblasts (MEF); format: cell-based; details: Mus musculus, Fibroblast, 72 h, read-out: MEF No. of cells; for activity at 0.1 µg/mL: dose 0.1 μg/ml; for activity at 0.4 µg/mL: dose 0.4 μg/ml
Experimental: as §4, §5

[3] = as above; format: cell-based; details: mouse, mouse embryo fibroblasts
Experimental: as §4, §5

[4] = 3 mg./kg. i.v. for 5 consecutive days
[5] = 4 mg./kg. i.v. for 5 consecutive days
[6] = 5 mg./kg. i.v. for 5 consecutive days
[7] = 0.2 mg./kg. i.p. 1 day after tumor implant
[8] = 1 mg./kg. i.p. 1 day after tumor implant
[9] = 5 mg./kg. i.p. 1 day after tumor implant
[10] = 25 mg./kg. i.p. 1 day after tumor implant
[11] = 50 mg./kg. i.p. 1 day after tumor implant
[12] = 100 mg./kg. i.p. 1 day after tumor implant
[13] = calculated on dose-effects lines, 3 days treatment
[14] = dose 0.0062 μg/ml, 3 days treatment, foci counted 5 days after infection, read-out: MSV-M No. of foci
[15] = dose 0.0250 μg/ml, 3 days treatment, foci counted 5 days after infection, read-out: MSV-M No. of foci
[16] = 3 days treatment, foci counted 5 days after infection, read-out: MSV-M No. of foci
[17] = dose 0.0062 μg/ml, uninfected MEF, 3 days treatment
[18] = dose 0.0250 μg/ml, uninfected MEF, 3 days treatment
[19] = uninfected MEF, 3 days treatment
[20] = calculated on dose-effects lines, uninfected MEF, 3 days treatment, read-out: MEF proliferation ID 50 (Inhibiting Dose 50%)
[21] = 12.5 mg./kg. i.p. 1 day after tumor implant

COc1cccc2c1C(=O)c1c(O)c3c(c(O)c1C2=O)C[C@@](O)(C(=O)CN1CCOCC1)C[C@@H]3O[C@H]1C[C@H](N)[C@H](O)[C@H](C)O1 [14-(N-morpholino)-daunomycin]
Tumor Volume T/C % (Solid Sarcoma 180; [4]): 77%
Toxic Deaths (Solid Sarcoma 180; [4]): 0/10
Tumor Volume T/C % (Solid Sarcoma 180; [5]): 64%
Toxic Deaths (Solid Sarcoma 180; [5]): 0/10
Tumor Volume T/C % (Solid Sarcoma 180; [6]): 69%
Toxic Deaths (Solid Sarcoma 180; [6]): 0/10
mortality ([1]; 0.2 mg./kg. i.p.): 0%
mortality ([1]; 1 mg./kg. i.p.): 0%
mortality ([1]; 5 mg./kg. i.p.): 0%
mortality ([1]; 25 mg./kg. i.p.): 0%
mortality ([1]; 50 mg./kg. i.p.): 14%
mortality ([1]; 100 mg./kg. i.p.): 85%
T/C (median survival time, % over untreated controls) (ascites Sarcoma 180; [7]): 103%
% LTS (ascites Sarcoma 180; [7]): 0%
LTS (Long Term Survivors after 60 days) (ascites Sarcoma 180; [7]): 0/10
Toxic Deaths (ascites Sarcoma 180; 0.2 mg./kg. i.p.): 0/10
T/C (median survival time, % over untreated controls) (ascites Sarcoma 180; [8]): 111%
% LTS (ascites Sarcoma 180; [8]): 0%
LTS (Long Term Survivors after 60 days) (ascites Sarcoma 180; [8]): 0/10
Toxic Deaths (ascites Sarcoma 180; 1 mg./kg. i.p.): 0/10
T/C (median survival time, % over untreated controls) (ascites Sarcoma 180; [9]): 133%
% LTS (ascites Sarcoma 180; [9]): 30%
LTS (Long Term Survivors after 60 days) (ascites Sarcoma 180; [9]): 3/10
Toxic Deaths (ascites Sarcoma 180; 5 mg./kg. i.p.): 0/10
T/C (median survival time, % over untreated controls) (ascites Sarcoma 180; [10]): 223%
% LTS (ascites Sarcoma 180; [10]): 29%
LTS (Long Term Survivors after 60 days) (ascites Sarcoma 180; [10]): 5/17
Toxic Deaths (ascites Sarcoma 180; 25 mg./kg. i.p.): 0/17
T/C (median survival time, % over untreated controls) (ascites Sarcoma 180; [11]): 100%
% LTS (ascites Sarcoma 180; [11]): 0%
LTS (Long Term Survivors after 60 days) (ascites Sarcoma 180; [11]): 0/7
Toxic Deaths (ascites Sarcoma 180; 50 mg./kg. i.p.): 1/7
T/C (median survival time, % over untreated controls) (ascites Sarcoma 180; [12]): 50%
% LTS (ascites Sarcoma 180; [12]): 14%
LTS (Long Term Survivors after 60 days) (ascites Sarcoma 180; [12]): 1/7
Toxic Deaths (ascites Sarcoma 180; 100 mg./kg. i.p.): 6/7
IC50 [2, 13]: 0.032 µg/mL (≈ 0.0522 µM)
activity at 0.0062 µg/mL [2, 14]: 78%
activity at 0.025 µg/mL [2, 15]: 69%
activity at 0.1 µg/mL [2, 16]: 17%
activity at 0.4 µg/mL [2, 16]: 0%
activity at 0.0062 µg/mL (Mouse Embryo Fibroblasts; [17]): 81%
activity at 0.025 µg/mL (Mouse Embryo Fibroblasts; [18]): 68%
activity at 0.1 µg/mL (Mouse Embryo Fibroblasts; [19]): 31%
activity at 0.4 µg/mL (Mouse Embryo Fibroblasts; [19]): 21%
IC50 at 72 h [3, 20]: 0.5 µg/mL (≈ 0.816 µM)

COc1cccc2c1C(=O)c1c(O)c3c(c(O)c1C2=O)C[C@@](O)(C(C)=O)C[C@@H]3O[C@H]1C[C@H](N)[C@H](O)[C@H](C)O1 [Daunomycin]
mortality ([1]; 0.2 mg./kg. i.p.): 0%
mortality ([1]; 1 mg./kg. i.p.): 0%
mortality ([1]; 5 mg./kg. i.p.): 15%
T/C (median survival time, % over untreated controls) (ascites Sarcoma 180; [7]): 106%
% LTS (ascites Sarcoma 180; [7]): 5%
LTS (Long Term Survivors after 60 days) (ascites Sarcoma 180; [7]): 1/20
Toxic Deaths (ascites Sarcoma 180; 0.2 mg./kg. i.p.): 0/20
T/C (median survival time, % over untreated controls) (ascites Sarcoma 180; [8]): 193%
% LTS (ascites Sarcoma 180; [8]): 45%
LTS (Long Term Survivors after 60 days) (ascites Sarcoma 180; [8]): 9/20
Toxic Deaths (ascites Sarcoma 180; 1 mg./kg. i.p.): 0/20
T/C (median survival time, % over untreated controls) (ascites Sarcoma 180; [9]): 173%
% LTS (ascites Sarcoma 180; [9]): 15%
LTS (Long Term Survivors after 60 days) (ascites Sarcoma 180; [9]): 3/20
Toxic Deaths (ascites Sarcoma 180; 5 mg./kg. i.p.): 3/20
activity at 0.0062 µg/mL ([2]; read-out: MSV-M No. of foci): 51%
activity at 0.0125 µg/mL ([2]; read-out: MSV-M No. of foci): 17%
activity at 0.025 µg/mL ([2]; read-out: MSV-M No. of foci): 0%
IC50 [2]: 0.006 µg/mL (≈ 0.0114 µM)
activity at 0.0062 µg/mL (Mouse Embryo Fibroblasts): 55%
activity at 0.0125 µg/mL (Mouse Embryo Fibroblasts): 45%
activity at 0.025 µg/mL (Mouse Embryo Fibroblasts): 22%
IC50 at 72 h [3]: 0.0086 µg/mL (≈ 0.0163 µM)

COc1cccc2c1C(=O)c1c(O)c3c(c(O)c1C2=O)C[C@@](O)(C(=O)CN1CCN(C)CC1)C[C@@H]3O[C@H]1C[C@H](N)[C@H](O)[C@H](C)O1 [14-[N-(N'-methyl)-piperazino]-daunomycin]
mortality ([1]; 0.2 mg./kg. i.p.): 0%
mortality ([1]; 1 mg./kg. i.p.): 0%
mortality ([1]; 5 mg./kg. i.p.): 0%
mortality ([1]; 12.5 mg./kg. i.p.): 10%
mortality ([1]; 25 mg./kg. i.p.): 0%
mortality ([1]; 50 mg./kg. i.p.): 50%
T/C (median survival time, % over untreated controls) (ascites Sarcoma 180; [7]): 119%
% LTS (ascites Sarcoma 180; [7]): 0%
LTS (Long Term Survivors after 60 days) (ascites Sarcoma 180; [7]): 0/10
Toxic Deaths (ascites Sarcoma 180; 0.2 mg./kg. i.p.): 0/10
T/C (median survival time, % over untreated controls) (ascites Sarcoma 180; [8]): 103%
% LTS (ascites Sarcoma 180; [8]): 0%
LTS (Long Term Survivors after 60 days) (ascites Sarcoma 180; [8]): 0/10
Toxic Deaths (ascites Sarcoma 180; 1 mg./kg. i.p.): 0/10
T/C (median survival time, % over untreated controls) (ascites Sarcoma 180; [9]): 116%
% LTS (ascites Sarcoma 180; [9]): 0%
LTS (Long Term Survivors after 60 days) (ascites Sarcoma 180; [9]): 0/10
Toxic Deaths (ascites Sarcoma 180; 5 mg./kg. i.p.): 0/10
T/C (median survival time, % over untreated controls) (ascites Sarcoma 180; [21]): 167%
% LTS (ascites Sarcoma 180; [21]): 30%
LTS (Long Term Survivors after 60 days) (ascites Sarcoma 180; [21]): 3/10
Toxic Deaths (ascites Sarcoma 180; 12.5 mg./kg. i.p.): 1/10
T/C (median survival time, % over untreated controls) (ascites Sarcoma 180; [10]): 226%
% LTS (ascites Sarcoma 180; [10]): 30%
LTS (Long Term Survivors after 60 days) (ascites Sarcoma 180; [10]): 3/10
Toxic Deaths (ascites Sarcoma 180; 25 mg./kg. i.p.): 0/10
T/C (median survival time, % over untreated controls) (ascites Sarcoma 180; [11]): 130%
% LTS (ascites Sarcoma 180; [11]): 10%
LTS (Long Term Survivors after 60 days) (ascites Sarcoma 180; [11]): 1/10
Toxic Deaths (ascites Sarcoma 180; 50 mg./kg. i.p.): 5/10
IC50 [2, 13]: 0.011 µg/mL (≈ 0.0176 µM)
activity at 0.0062 µg/mL [2, 14]: 60%
activity at 0.025 µg/mL [2, 15]: 35%
activity at 0.1 µg/mL [2, 16]: 19%
activity at 0.4 µg/mL [2, 16]: 0%
activity at 0.0062 µg/mL (Mouse Embryo Fibroblasts; [17]): 67%
activity at 0.025 µg/mL (Mouse Embryo Fibroblasts; [18]): 64%
activity at 0.1 µg/mL (Mouse Embryo Fibroblasts; [19]): 56%
activity at 0.4 µg/mL (Mouse Embryo Fibroblasts; [19]): 23%
IC50 at 72 h [3, 20]: 0.09 µg/mL (≈ 0.144 µM)
